Results: ChEMBL document CHEMBL4507261, “Data for DCP probe A-192621” (2021)

Tests used:
[1] = target: cGMP-inhibited 3',5'-cyclic phosphodiesterase 3A (Homo sapiens) (UniProt Q14432); experiment: PDE3A (h) Eurofins-Cerep enzyme and uptake assay; details: Compound concentration 10.0 uM
[2] = target: Adenosine receptor A3 (Homo sapiens) (UniProt P0DMS8); experiment: A3 (h) Eurofins-Cerep binding assay; parameters: ligand concentration 0.15 nM; details: filed as agonist, Compound concentration 10.0 uM
[3] = target: Cannabinoid receptor 2 (Homo sapiens) (UniProt P34972); experiment: CB2 (h) Eurofins-Cerep binding assay; parameters: ligand concentration 0.8 nM; details: filed as agonist, Compound concentration 10.0 uM
[4] = target: Motilin receptor (Homo sapiens) (UniProt O43193); experiment: motilin (h Eurofins-Cerep binding assay; parameters: ligand concentration 0.05 nM; details: filed as agonist, Compound concentration 10.0 uM
[5] = target: Muscarinic acetylcholine receptor M3 (Homo sapiens) (UniProt P20309); experiment: M3 (h) Eurofins-Cerep binding assay; parameters: ligand concentration 0.2 nM; details: filed as antagonist, Compound concentration 10.0 uM
[6] = target: voltage-gated L-type Ca2+ channel (dihydropyridine site) (Rattus norvegicus, UniProt P22002+P27732+Q02485); experiment: Ca2+ channel (L, dihydropyridine site) Eurofins-Cerep binding assay; parameters: incubation time 90 min, incubation temperature RT, ligand concentration 0.1 nM; details: rat cerebral cortex (source of protein), probe [3H]nitrendipine (0.1 nM), compound concentration 10 uM, read-out: % Inhibition of Control Specific Binding (Mean n=2)
[7] = target: Sodium- and chloride-dependent GABA transporter 1 (Rattus norvegicus) (UniProt P23978); experiment: GABA transporter Eurofins-Cerep binding assay; parameters: ligand concentration 10 nM; details: filed as antagonist, Compound concentration 10.0 uM
[8] = target: Peripheral plasma membrane protein CASK (Homo sapiens) (UniProt O14936); details: Compound concentration 1000.0 nM
[9] = target: Cyclin-dependent kinase 8 (Homo sapiens) (UniProt P49336); details: Compound concentration 1000.0 nM
[10] = target: Death-associated protein kinase 1 (Homo sapiens) (UniProt P53355); details: Compound concentration 1000.0 nM
[11] = target: Serine/threonine-protein kinase DCLK3 (Homo sapiens) (UniProt Q9C098); details: Compound concentration 1000.0 nM
[12] = target: Serine/threonine-protein kinase MRCK gamma (Homo sapiens) (UniProt Q6DT37); details: Compound concentration 1000.0 nM
[13] = target: Eukaryotic translation initiation factor 2-alpha kinase 1 (Homo sapiens) (UniProt Q9BQI3); details: Compound concentration 1000.0 nM
[14] = target: Focal adhesion kinase 1 (Homo sapiens) (UniProt Q05397); details: Compound concentration 1000.0 nM
[15] = target: Vascular endothelial growth factor receptor 1 (Homo sapiens) (UniProt P17948); details: Compound concentration 1000.0 nM
[16] = system: Receptor-type tyrosine-protein kinase FLT3 (Homo sapiens), P36888 [D835V]; details: Compound concentration 1000.0 nM
[17] = target: Rhodopsin kinase GRK1 (Homo sapiens) (UniProt Q15835); details: Compound concentration 1000.0 nM
[18] = target: G protein-coupled receptor kinase 3 (Homo sapiens) (UniProt P35626); details: Compound concentration 1000.0 nM
[19] = target: Inhibitor of nuclear factor kappa-B kinase subunit epsilon (Homo sapiens) (UniProt Q14164); details: Compound concentration 1000.0 nM
[20] = target: Interleukin-1 receptor-associated kinase 3 (Homo sapiens) (UniProt Q9Y616); details: Compound concentration 1000.0 nM
[21] = target: Tyrosine-protein kinase JAK2 (Homo sapiens) (UniProt O60674); details: Compound concentration 1000.0 nM
[22] = system: Leucine-rich repeat serine/threonine-protein kinase 2 (Homo sapiens), Q5S007 [G2019S]; details: Compound concentration 1000.0 nM
[23] = target: Serine/threonine-protein kinase MAK (Homo sapiens) (UniProt P20794); details: Compound concentration 1000.0 nM
[24] = target: Mitogen-activated protein kinase kinase kinase kinase 4 (Homo sapiens) (UniProt O95819); details: Compound concentration 1000.0 nM
[25] = target: Dual specificity mitogen-activated protein kinase kinase 1 (Homo sapiens) (UniProt Q02750); details: Compound concentration 1000.0 nM
[26] = target: Dual specificity mitogen-activated protein kinase kinase 4 (Homo sapiens) (UniProt P45985); details: Compound concentration 1000.0 nM
[27] = target: Maternal embryonic leucine zipper kinase (Homo sapiens) (UniProt Q14680); details: Compound concentration 1000.0 nM
[28] = target: Dual specificity mitogen-activated protein kinase kinase 7 (Homo sapiens) (UniProt O14733); details: Compound concentration 1000.0 nM
[29] = target: Serine/threonine-protein kinase 3 (Homo sapiens) (UniProt Q13188); details: Compound concentration 1000.0 nM
[30] = target: Serine/threonine-protein kinase Nek11 (Homo sapiens) (UniProt Q8NG66); details: Compound concentration 1000.0 nM
[31] = target: Serine/threonine-protein kinase PAK 3 (Homo sapiens) (UniProt O75914); details: Compound concentration 1000.0 nM
[32] = target: Serine/threonine-protein kinase PAK 5 (Homo sapiens) (UniProt Q9P286); details: Compound concentration 1000.0 nM
[33] = target: Platelet-derived growth factor receptor alpha (Homo sapiens) (UniProt P16234); details: Compound concentration 1000.0 nM
[34] = target: Cyclin-dependent kinase 15 (Homo sapiens) (UniProt Q96Q40); details: Compound concentration 1000.0 nM
[35] = target: Serine/threonine-protein kinase pim-2 (Homo sapiens) (UniProt Q9P1W9); details: Compound concentration 1000.0 nM
[36] = target: Protein kinase C delta type (Homo sapiens) (UniProt Q05655); details: Compound concentration 1000.0 nM
[37] = target: Proto-oncogene tyrosine-protein kinase receptor Ret (Homo sapiens) (UniProt P07949); details: Compound concentration 1000.0 nM
[38] = target: Serine/threonine-protein kinase RIO2 (Homo sapiens) (UniProt Q9BVS4); details: Compound concentration 1000.0 nM
[39] = target: Ribosomal protein S6 kinase alpha-2 (Homo sapiens) (UniProt Q15349); details: Compound concentration 1000.0 nM
[40] = target: TGF-beta receptor type-1 (Homo sapiens) (UniProt P36897); details: Compound concentration 1000.0 nM
[41] = target: TGF-beta receptor type-2 (Homo sapiens) (UniProt P37173); details: Compound concentration 1000.0 nM
[42] = target: Activated CDC42 kinase 1 (Homo sapiens) (UniProt Q07912); details: Compound concentration 1000.0 nM
[43] = target: Vascular endothelial growth factor receptor 2 (Homo sapiens) (UniProt P35968); details: Compound concentration 1000.0 nM
[44] = target: Mitogen-activated protein kinase kinase kinase 20 (Homo sapiens) (UniProt Q9NYL2); details: Compound concentration 1000.0 nM

Chain of Serine/threonine-protein kinase PAK 3 (Homo sapiens) (O75914 whole entry, looked up): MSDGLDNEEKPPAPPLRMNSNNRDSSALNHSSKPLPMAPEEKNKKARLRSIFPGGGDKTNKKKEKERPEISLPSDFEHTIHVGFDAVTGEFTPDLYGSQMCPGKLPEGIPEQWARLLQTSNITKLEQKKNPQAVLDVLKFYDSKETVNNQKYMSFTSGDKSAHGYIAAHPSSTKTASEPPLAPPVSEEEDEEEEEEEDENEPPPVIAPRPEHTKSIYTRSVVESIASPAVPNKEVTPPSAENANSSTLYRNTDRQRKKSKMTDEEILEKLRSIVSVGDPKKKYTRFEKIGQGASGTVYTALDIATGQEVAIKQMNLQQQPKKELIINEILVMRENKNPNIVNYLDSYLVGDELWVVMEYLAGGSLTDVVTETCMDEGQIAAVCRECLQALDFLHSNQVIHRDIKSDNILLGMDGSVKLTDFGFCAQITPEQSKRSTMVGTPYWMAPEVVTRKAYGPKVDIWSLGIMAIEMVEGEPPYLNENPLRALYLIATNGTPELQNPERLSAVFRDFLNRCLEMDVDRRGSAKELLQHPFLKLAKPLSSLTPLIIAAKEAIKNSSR
Chain of Cannabinoid receptor 2 (Homo sapiens) (P34972 whole entry): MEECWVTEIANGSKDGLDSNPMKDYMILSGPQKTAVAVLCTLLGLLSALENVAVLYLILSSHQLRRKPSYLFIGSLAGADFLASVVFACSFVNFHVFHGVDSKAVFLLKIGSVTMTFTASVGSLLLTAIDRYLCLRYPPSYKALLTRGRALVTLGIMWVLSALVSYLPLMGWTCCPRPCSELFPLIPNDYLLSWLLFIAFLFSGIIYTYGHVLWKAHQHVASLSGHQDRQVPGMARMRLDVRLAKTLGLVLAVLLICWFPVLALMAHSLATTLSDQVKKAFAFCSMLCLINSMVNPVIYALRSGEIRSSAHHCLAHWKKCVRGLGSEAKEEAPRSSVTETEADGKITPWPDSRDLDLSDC
Chain of Dual specificity mitogen-activated protein kinase kinase 1 (Homo sapiens) (Q02750 whole entry): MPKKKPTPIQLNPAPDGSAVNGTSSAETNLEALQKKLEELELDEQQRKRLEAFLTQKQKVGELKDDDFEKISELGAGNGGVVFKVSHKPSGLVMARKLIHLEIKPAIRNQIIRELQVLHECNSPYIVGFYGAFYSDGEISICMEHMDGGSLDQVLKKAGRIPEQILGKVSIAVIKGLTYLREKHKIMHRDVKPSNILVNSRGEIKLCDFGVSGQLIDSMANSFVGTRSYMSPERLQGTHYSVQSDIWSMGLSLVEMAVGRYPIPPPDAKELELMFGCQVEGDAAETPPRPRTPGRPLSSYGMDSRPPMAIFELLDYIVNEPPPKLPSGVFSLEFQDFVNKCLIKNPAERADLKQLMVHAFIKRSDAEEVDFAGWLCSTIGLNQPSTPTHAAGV
Chain of Dual specificity mitogen-activated protein kinase kinase 4 (Homo sapiens) (P45985 whole entry): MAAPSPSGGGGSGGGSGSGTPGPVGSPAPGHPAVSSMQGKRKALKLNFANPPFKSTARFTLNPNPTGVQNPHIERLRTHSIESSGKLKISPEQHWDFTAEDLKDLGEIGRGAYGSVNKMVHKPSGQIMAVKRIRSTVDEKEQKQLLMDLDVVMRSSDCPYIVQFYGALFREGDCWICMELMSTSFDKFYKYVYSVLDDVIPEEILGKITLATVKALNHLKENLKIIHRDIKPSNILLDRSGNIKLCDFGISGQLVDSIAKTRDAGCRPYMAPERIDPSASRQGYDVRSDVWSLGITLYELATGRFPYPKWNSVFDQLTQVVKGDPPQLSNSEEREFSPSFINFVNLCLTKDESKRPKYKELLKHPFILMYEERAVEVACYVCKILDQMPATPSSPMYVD
Chain of Focal adhesion kinase 1 (Homo sapiens) (Q05397 2-1052 limits assumed): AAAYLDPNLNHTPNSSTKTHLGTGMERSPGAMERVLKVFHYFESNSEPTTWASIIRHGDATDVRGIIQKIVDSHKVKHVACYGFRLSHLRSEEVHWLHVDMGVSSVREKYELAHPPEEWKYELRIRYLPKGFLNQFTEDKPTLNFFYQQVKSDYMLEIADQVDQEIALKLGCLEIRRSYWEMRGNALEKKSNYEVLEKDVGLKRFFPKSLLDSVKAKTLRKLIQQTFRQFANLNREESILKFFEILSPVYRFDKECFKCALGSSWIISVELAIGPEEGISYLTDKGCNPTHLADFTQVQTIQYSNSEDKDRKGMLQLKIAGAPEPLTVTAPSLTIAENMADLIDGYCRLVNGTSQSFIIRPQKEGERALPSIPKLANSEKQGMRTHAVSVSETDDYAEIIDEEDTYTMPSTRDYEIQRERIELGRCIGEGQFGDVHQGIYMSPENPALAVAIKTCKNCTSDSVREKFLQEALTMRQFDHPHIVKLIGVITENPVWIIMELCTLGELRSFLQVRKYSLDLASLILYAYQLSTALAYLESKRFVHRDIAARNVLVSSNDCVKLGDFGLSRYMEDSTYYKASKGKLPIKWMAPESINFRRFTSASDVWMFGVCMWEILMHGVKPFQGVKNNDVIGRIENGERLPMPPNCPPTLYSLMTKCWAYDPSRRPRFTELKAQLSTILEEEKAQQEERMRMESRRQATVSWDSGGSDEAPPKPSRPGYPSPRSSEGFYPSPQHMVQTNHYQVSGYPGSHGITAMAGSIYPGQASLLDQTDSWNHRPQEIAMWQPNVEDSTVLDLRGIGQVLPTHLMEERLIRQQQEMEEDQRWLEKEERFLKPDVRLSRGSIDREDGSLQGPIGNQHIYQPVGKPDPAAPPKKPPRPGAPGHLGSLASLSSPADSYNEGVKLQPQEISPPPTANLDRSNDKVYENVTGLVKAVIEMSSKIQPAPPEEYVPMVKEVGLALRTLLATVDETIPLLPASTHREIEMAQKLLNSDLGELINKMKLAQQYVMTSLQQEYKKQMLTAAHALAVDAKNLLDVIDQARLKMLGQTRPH
Chain of Activated CDC42 kinase 1 (Homo sapiens) (Q07912 whole entry, looked up): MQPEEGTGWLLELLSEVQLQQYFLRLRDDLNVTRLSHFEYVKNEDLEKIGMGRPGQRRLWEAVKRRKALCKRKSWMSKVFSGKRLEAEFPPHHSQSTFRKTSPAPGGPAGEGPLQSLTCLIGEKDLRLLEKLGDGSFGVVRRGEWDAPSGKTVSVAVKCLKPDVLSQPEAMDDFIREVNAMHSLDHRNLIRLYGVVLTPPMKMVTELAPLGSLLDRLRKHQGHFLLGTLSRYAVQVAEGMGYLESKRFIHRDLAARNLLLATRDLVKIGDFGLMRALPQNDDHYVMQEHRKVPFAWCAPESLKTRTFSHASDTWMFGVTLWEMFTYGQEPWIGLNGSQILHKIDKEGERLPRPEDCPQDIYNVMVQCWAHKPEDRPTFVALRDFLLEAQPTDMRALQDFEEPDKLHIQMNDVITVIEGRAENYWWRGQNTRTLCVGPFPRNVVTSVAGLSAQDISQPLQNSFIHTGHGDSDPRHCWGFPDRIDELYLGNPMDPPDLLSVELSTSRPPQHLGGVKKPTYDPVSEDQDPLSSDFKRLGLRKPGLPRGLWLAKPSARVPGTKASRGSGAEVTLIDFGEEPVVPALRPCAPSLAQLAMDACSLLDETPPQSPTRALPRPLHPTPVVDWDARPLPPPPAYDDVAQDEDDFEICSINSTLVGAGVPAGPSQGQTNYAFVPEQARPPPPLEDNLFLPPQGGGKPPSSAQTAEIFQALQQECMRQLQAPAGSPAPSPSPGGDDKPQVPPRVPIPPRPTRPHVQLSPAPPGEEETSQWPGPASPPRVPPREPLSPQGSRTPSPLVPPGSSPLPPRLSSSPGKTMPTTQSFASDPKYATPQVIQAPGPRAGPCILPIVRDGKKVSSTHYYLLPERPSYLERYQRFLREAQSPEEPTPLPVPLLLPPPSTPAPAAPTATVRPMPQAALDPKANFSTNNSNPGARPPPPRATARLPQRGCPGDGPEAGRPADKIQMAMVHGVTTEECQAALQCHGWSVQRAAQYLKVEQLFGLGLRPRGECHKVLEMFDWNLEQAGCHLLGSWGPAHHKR
Chain of Inhibitor of nuclear factor kappa-B kinase subunit epsilon (Homo sapiens) (Q14164 whole entry): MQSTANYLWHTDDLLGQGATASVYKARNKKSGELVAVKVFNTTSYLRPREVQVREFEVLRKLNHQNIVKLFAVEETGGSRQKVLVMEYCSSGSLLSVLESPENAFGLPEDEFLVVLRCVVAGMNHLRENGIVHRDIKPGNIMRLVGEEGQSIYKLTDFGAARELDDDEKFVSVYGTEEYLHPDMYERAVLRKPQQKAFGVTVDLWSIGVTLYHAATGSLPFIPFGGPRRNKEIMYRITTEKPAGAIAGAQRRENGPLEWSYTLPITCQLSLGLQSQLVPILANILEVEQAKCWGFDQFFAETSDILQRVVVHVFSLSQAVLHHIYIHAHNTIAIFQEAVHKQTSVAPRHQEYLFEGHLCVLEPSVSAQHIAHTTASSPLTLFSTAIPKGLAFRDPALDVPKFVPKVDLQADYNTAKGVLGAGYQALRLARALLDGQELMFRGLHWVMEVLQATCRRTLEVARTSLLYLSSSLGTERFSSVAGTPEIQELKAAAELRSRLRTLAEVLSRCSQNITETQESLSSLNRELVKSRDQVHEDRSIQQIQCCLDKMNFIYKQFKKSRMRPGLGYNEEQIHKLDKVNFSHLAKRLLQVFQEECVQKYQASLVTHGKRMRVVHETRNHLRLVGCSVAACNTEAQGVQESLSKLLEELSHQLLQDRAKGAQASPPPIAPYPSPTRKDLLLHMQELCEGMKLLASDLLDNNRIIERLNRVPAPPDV
Chain of Serine/threonine-protein kinase 3 (Homo sapiens) (Q13188 whole entry): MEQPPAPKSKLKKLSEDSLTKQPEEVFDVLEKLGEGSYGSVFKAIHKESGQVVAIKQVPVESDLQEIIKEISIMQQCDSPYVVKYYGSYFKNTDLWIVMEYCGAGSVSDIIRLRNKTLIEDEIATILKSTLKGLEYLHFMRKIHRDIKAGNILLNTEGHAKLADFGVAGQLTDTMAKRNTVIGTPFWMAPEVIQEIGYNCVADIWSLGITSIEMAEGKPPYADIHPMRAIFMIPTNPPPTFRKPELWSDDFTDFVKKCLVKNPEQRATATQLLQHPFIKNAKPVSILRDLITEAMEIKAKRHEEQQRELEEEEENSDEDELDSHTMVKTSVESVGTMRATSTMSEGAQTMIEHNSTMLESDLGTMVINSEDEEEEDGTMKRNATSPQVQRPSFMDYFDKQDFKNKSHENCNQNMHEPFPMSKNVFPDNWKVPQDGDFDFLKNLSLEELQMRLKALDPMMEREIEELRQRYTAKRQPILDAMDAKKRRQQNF

CCCOc1ccc([C@H]2[C@H](C(=O)O)[C@@H](c3ccc4c(c3)OCO4)CN2CC(=O)Nc2c(CC)cccc2CC)cc1 [A-192621]
inactive: residual activity [8] 77% | residual activity [9] 76% | residual activity [10] 90% | residual activity [11] 100% | residual activity [12] 79% | residual activity [13] 84% | residual activity [14] 86% | residual activity [15] 97% | residual activity [16] 88% | residual activity [17] 68% | residual activity [18] 73% | residual activity [19] 68% | residual activity [20] 100% | residual activity [21] 53% | residual activity [22] 91% | residual activity [23] 97% | residual activity [24] 90% | residual activity [25] 66% | residual activity [26] 80% | residual activity [27] 65% | residual activity [28] 74% | residual activity [29] 96% | residual activity [30] 59% | residual activity [31] 100% | residual activity [32] 73% | residual activity [33] 80% | residual activity [34] 94% | residual activity [35] 91% | residual activity [36] 100% | residual activity [37] 86% | residual activity [38] 71% | residual activity [39] 82% | residual activity [40] 64% | residual activity [41] 95% | residual activity [42] 100% | residual activity [43] 77% | residual activity [44] 90%
-12%: % Inhibition of Control Specific Binding (Mean n=2) [7]
29%: % Inhibition of Control Values (Mean n=2) [1]
-11.3%: % Inhibition of Control Specific Binding (Mean n=2) [5]
33.6%: % Inhibition of Control Specific Binding (Mean n=2) [3]
47.4%: % Inhibition of Control Specific Binding (Mean n=2) [2]
30.3%: inhibition at 90 min, 10 µM [6]
-17.9%: % Inhibition of Control Specific Binding (Mean n=2) [4]

CCCOc1ccc([C@@H]2[C@@H](C(=O)O)[C@H](c3ccc4c(c3)OCO4)CN2CC(=O)Nc2c(CC)cccc2CC)cc1 [A-1806262]
inactive: residual activity [8] 89% | residual activity [9] 86% | residual activity [10] 83% | residual activity [11] 100% | residual activity [12] 57% | residual activity [13] 86% | residual activity [14] 88% | residual activity [15] 94% | residual activity [16] 62% | residual activity [17] 100% | residual activity [18] 100% | residual activity [19] 85% | residual activity [20] 100% | residual activity [21] 79% | residual activity [22] 84% | residual activity [23] 93% | residual activity [24] 97% | residual activity [25] 93% | residual activity [26] 83% | residual activity [27] 84% | residual activity [28] 91% | residual activity [29] 100% | residual activity [30] 81% | residual activity [31] 77% | residual activity [32] 88% | residual activity [33] 76% | residual activity [34] 93% | residual activity [35] 99% | residual activity [36] 100% | residual activity [37] 97% | residual activity [38] 98% | residual activity [39] 81% | residual activity [40] 64% | residual activity [41] 96% | residual activity [42] 90% | residual activity [43] 72% | residual activity [44] 100%
34.5%: % Inhibition of Control Values (Mean n=2) [1]
37.6%: % Inhibition of Control Specific Binding (Mean n=2) [2]
-17.3%: % Inhibition of Control Specific Binding (Mean n=2) [7]
14.6%: % Inhibition of Control Specific Binding (Mean n=2) [3]
27.2%: inhibition at 90 min, 10 µM [6]
-0.6%: % Inhibition of Control Specific Binding (Mean n=2) [5]
4.4%: % Inhibition of Control Specific Binding (Mean n=2) [4]
